Reference: publication doi:10.1101/2024.08.25.609621 (bioRxiv, 2024)
Where “and” joins values, the source holds several entries; their conditions need not be identical. Equal entries are not always repeated. Where two headings read alike, the source gives them in different places.

Assays:
[1] = target: SARS-CoV-2 NSP3 macrodomain (Mac1) (Severe acute respiratory syndrome coronavirus 2, UniProt P0DTD1); experiment: biochemical; type: binding; details: for SARS CoV-2 macrodomain HTRF assay: Hillslope: dose-response fit
[2] = target: SARS-CoV-2 NSP3 macrodomain (Mac1), P43 crystal form (Severe acute respiratory syndrome coronavirus 2, UniProt P0DTD1); type: binding; details: for PanDDA run, DMSO background map: 1-BDC: event 1; for 1-BDC: PanDDA background density correction; for Total number of conformations: ligand conformations modeled in Mac1 crystal structure; for 2*(1-BDC) (%): occupancy estimate from PanDDA BDC; for X-ray crystallography: Binding site: site where the ligand is bound in the X-ray crystal structure
[3] = crystal soak concentration 10 mM, DMSO background map
[4] = crystal soak concentration 10 mM, P43 crystals
[5] = crystal soak 10 mM, DMSO background map

Row | SMILES | Hill slope ([1]; HTRF dose-response fit, Mac1) | SARS CoV-2 macrodomain HTRF assay: Hillslope [1] | Occupancy difference (refined_occupancy - 2*(1-BDC)) [2] | Refined ligand occupancy (%) [2] [%] | PanDDA run, DMSO background map: 1-BDC ([2]; DMSO background map) | 1-BDC [2] | Total number of conformations [2] | 2*(1-BDC) (%) [2] [%] | X-ray crystallography: Binding site [2] | PanDDA run, DMSO background map: 1-BDC [2, 3] | Pandda run, overall: Hit [2, 4] | Pandda run, overall: Modeling comment [2, 4] | PanDDA run, DMSO background map: Hit [2, 3] | other results
1 | CN(CC1(O)CCOCC1)c1ncnc2[nH]ccc12 [AVI-4318] | 1.2 | 1.2 | 0 | 50 | 0.26 and 0.25 | 0.25 | 1 | 50 | Adenosine |  |  |  |  | 
2 | OC1(CNc2ncnc3[nH]ccc23)CCSCC1 [AVI-4319] | 1.2 | 1.2 | 0 | 32 | 0.16 and 0.17 | 0.16 | 1 | 32 | Adenosine |  |  |  |  | 
3 | OC1(CNc2ncnc3[nH]ccc23)CC2CCC1CC2 (stereo not shown) [AVI-4320] | 1.1 | 1.1 | 0 | 28 | 0.14 | 0.14 | 1 | 28 | Adenosine |  |  |  |  | 
4 | OC1(CNc2ncnc3[nH]ccc23)CCCSC1 (stereo not shown) [AVI-4322] | 1.3 | 1.3 | 0 | 42 | 0.21 | 0.21 | 1 | 42 | Adenosine |  |  |  |  | 
5 | Cc1c[nH]c2ncnc(NCC3(O)CCC(O)CC3)c12 (stereo not shown) [AVI-4329] |  |  | 12 | 30 |  | 0.09 | 2 | 18 | Adenosine | 0.09 and 0.11 | TRUE | Duplicate, not modeled | TRUE | IC50 ([1]; dose-response, read-out: SARS CoV-2 macrodomain HTRF assay: IC50): > 1 mM; Pandda run, overall: Modeled [2, 4]: TRUE; PanDDA run, DMSO background map: Modeled [2, 3]: TRUE
6 | Cc1c[nH]c2ncnc(NCC3(O)CCC(C)(C)CC3)c12 [AVI-4330] | 1.3 | 1.3 |  |  |  |  |  |  |  | 0.11 | TRUE | Weak density, not modeled | TRUE | 
7 | Cc1c[nH]c2ncnc(NCC3(O)CCC(C)CC3)c12 (stereo not shown) [AVI-4331] | 1.2 | 1.2 | 0 | 54 |  | 0.27 | 1 | 54 | Adenosine | 0.23 | TRUE | Duplicate, not modeled | TRUE | Pandda run, overall: Hit ([2]; crystal soak 10 mM, P43 crystals, TRUE = ligand identified by PanDDA): TRUE; PanDDA run, DMSO background map: Hit [2, 5]: TRUE; PanDDA run, DMSO background map: 1-BDC [2, 5]: 0.27
8 | CC(C)(CO)Nc1ncnc2[nH]ccc12 [AVI-5266] | 1.1 |  | 16 | 40 | 0.12 | 0.12 | 1 | 24 |  |  |  |  |  | Hill slope ([1]; SARS CoV-2 macrodomain HTRF assay, dose-response): 1.1; inhibition at 200 µM ([1]; Single dose, concentration 200 μM, read-out: Average % competition): 56%; inhibition at 200 µM ([1]; preliminary screen, compound at 200 μM, mean of 3-4 technical replicates, read-out: % competition in HTRF assay): 56%; X-ray crystal structure ([2]; X-ray crystal structure determined (TRUE)): TRUE; Binding site ([2]; site of ligand in X-ray crystal structure): Adenosine
